In brackets after ≈: the same amount, converted by molar mass. Read-outs that look alike come from different tables or passages of the source.
How the values were obtained:
[1] = water, cited from earlier work
[2] = Margin of exposure versus NOEL (estimated total daily dose to a child in a swimming pool); conditions: for Margin of Exposure vs NOEL: agricultural fungicides, Table B; for Margin of Exposure vs NOEL (Target > 100): herbicides, Table A, ratio of NOEL to estimated daily dose, 10 ppm in pool water, child 22 kg, 3 hours per day
Experimental: The herbicide preferably has a margin of exposure versus no observed effect level (“NOEL”) value of greater than 10, more preferably greater than 50, especially greater than 80, and more especially greater than 99. The margin of exposure versus NOEL is determined by estimating the total daily dose of the herbicide to a child in a swimming pool and determining the ratio of the NOEL to this. The total daily exposure may be estimated as follows. Oral exposure is estimated by assuming that the swimmer is in the water 3 hours per day, and that the swimmer ingests 50 milliliters of pool water per hour of swimming. It is also assumed that the herbicide will be present in the pool water at a concentration of 10 parts per million, equivalent to 10 milligrams per liter of pool water. The daily oral exposure is therefore estimated as the product of the swimming duration, the ingestion rate, and the concentration in the pool water. Dermal exposure is estimated by assuming the swimmer is in the water 3 hours per day, that the total body surface area, 8800 square centimeters, is immersed in the water, and that the herbicide permeates the skin at a rate, expressed in centimeters per hour, predicted by a model for skin permeation based on chemical structure, the Skinperm model, developed by W. F. ten Berge. A short description of the Skinperm model, can be accessed at: http://home.wxs.nl/˜wtberge/, which is incorporated herein by reference. The daily dermal exposure is then estimated as the product of the permeation rate, the concentration of the herbicide in the pool water (expressed in milligrams per cubic centimeter), the swimming duration, and the total body surface area. The total daily exposure is estimated as the sum of the daily oral and daily dermal exposure. The daily dose, expressed in milligrams per kilogram bodyweight per day, is then estimated as the total daily exposure divided by an assumed body weight of 22 kilograms.

[3] = agricultural fungicides, Table B
[4] = herbicides, Table A; 10 ppm in pool water, child 22 kg
Experimental: The margin of exposure versus NOEL is determined by estimating the total daily dose of the herbicide to a child in a swimming pool and determining the ratio of the NOEL to this. The total daily exposure may be estimated as follows. Oral exposure is estimated by assuming that the swimmer is in the water 3 hours per day, and that the swimmer ingests 50 milliliters of pool water per hour of swimming. It is also assumed that the herbicide will be present in the pool water at a concentration of 10 parts per million, equivalent to 10 milligrams per liter of pool water. The daily oral exposure is therefore estimated as the product of the swimming duration, the ingestion rate, and the concentration in the pool water. Dermal exposure is estimated by assuming the swimmer is in the water 3 hours per day, that the total body surface area, 8800 square centimeters, is immersed in the water, and that the herbicide permeates the skin at a rate, expressed in centimeters per hour, predicted by a model for skin permeation based on chemical structure, the Skinperm model, developed by W. F. ten Berge. A short description of the Skinperm model, can be accessed at: http://home.wxs.nl/˜wtberge/, which is incorporated herein by reference. The daily dermal exposure is then estimated as the product of the permeation rate, the concentration of the herbicide in the pool water (expressed in milligrams per cubic centimeter), the swimming duration, and the total body surface area. The total daily exposure is estimated as the sum of the daily oral and daily dermal exposure. The daily dose, expressed in milligrams per kilogram bodyweight per day, is then estimated as the total daily exposure divided by an assumed body weight of 22 kilograms.
The margin of exposure versus RfD is determined by estimating the total daily dose of the herbicide to a child in a swimming pool, as described above, and determining the ratio of the RfD to this (i.e. margin of exposure/RfD).

mustard algae [5] = assay: Remedial laboratory study on algae, change in turbidity; conditions: for Change in Turbidity at active agent (ppm) five days post treatment: 5 ppm: 5 ppm active ingredient; for Change in Turbidity at active agent (ppm) five days post treatment: 5 ppm / Change in Turbidity at active agent (ppm) five days post treatment: 10 ppm: initial absorbance 0.10; for Change in Turbidity at active agent (ppm) five days post treatment: 10 ppm: 10 ppm active ingredient; for water turbidity: indicating killing of the mustard algae
mustard algae [6] = assay: Preventative laboratory study on algae, visual growth score
[7] = agricultural fungicides, Table B

| SMILES | Solubility [1, 7] [mg/L] | Margin of Exposure vs NOEL [2] | Margin of Exposure vs. RfD [3] | Change in Turbidity at active agent (ppm) five days post treatment: 5 ppm (mustard algae [5]; Table 2) | Change in Turbidity at active agent (ppm) five days post treatment: 10 ppm (mustard algae [5]; Table 2) | comments (Remedial Algae Control) (mustard algae [5]; Table 2) | further results |
| --- | --- | --- | --- | --- | --- | --- | --- |
| COCC(=O)N(c1c(C)cccc1C)C(C)C(=O)OC (racemic) [Metalaxyl, N-(2,6-dimethylphenyl)-N-(methoxyacetyl)-DL-alaninemethyl ester] | 8400 (≈ 30100 µM) | 98 | 1 | – | – | – | – |
| CO/C=C(/C(=O)OC)c1ccccc1Oc1cc(Oc2ccccc2C#N)ncn1 [Azoxystrobin, Methyl (E)-2-2-6-(2-cyanophenoxy)pyrimidin-4-yloxyphenyl-3-methoxyacrylate] | 10 (≈ 24.8 µM) | 240 | 2.4 | – | – | – | – |
| CC(C)N1C(=O)c2ccccc2NS1(=O)=O [Bentazon, 3-isopropyl-1H-2,1,3-benzothiadiazin-4(3H)-one 2,2-dioxide] | – | – | – | – | – | – | Solubility ([1]; herbicides, Table A): 2300 mg/1; Margin of Exposure vs NOEL (Target > 100) [2]: 41; Margin of Exposure vs. RfD (Target > 1) [4]: 0.4 |
| CC1=C(C(=O)Nc2ccccc2)SCCO1 [Carboxin, 5,6-dihydro-2-methyl-N-phenyl-1,4-oxathiin-3-carboxamide] | – | 116 | 1.2 | 0.01 | −0.01 | algicidal activity | water turbidity (mustard algae [5]; Table 2): decreased significantly |
| Nc1cnn(-c2ccccc2)c(=O)c1Cl [Chloridazon, 5-amino-4-chloro-2-phenyl-3(2H)-pyridazinone] | – | – | – | +0.15 | +0.05 | Algistatic. More | Solubility ([1]; herbicides, Table A): 340 mg/1 |
| CCSC(=O)N(CC)C1CCCCC1 [Cycloate, S-ethyl cyclohexyl(ethyl)thiocarbamate] | – | 1 | 0.001 | 0.00 | −0.01 | algicidal activity | water turbidity (mustard algae [5]; Table 2): decreased significantly |
| CC(=O)O.CCCCCCCCCCCCNC(=N)N [Dodine, 1-dodecylguanidine acetate] | – | 17 | 0.02 | −0.03 | −0.04 | algicidal activity | water turbidity (mustard algae [5]; Table 2): decreased significantly |
| CCCCc1c(C)nc(NCC)[nH]c1=O [Ethirimol, 5-butyl-2-ethylamino-6-methylpyrimidin-4-ol] | 250 (≈ 1190 µM) | – | – | – | – | – | – |
| N#Cc1c[nH]cc1-c1cccc2c1OC(F)(F)O2 [Fludioxonil, 4-(2,2-difluoro-1,3-bezodioxol-4-yl)-1Hpyrrole-3-carbonitrile] | – | 44 | 0.4 | – | – | – | – |
| COC(=O)c1c(Cl)nn(C)c1S(=O)(=O)NC(=O)Nc1nc(OC)cc(OC)n1 [Halosulfuronmethyl, Methyl 5-{[(4,6-dimethoxy-2-pyrimidinyl)amino]carbonylaminosulfonyl}-3-chloro-1-methyl-1H-pyrazole-4-carboxylate] | – | – | – | – | – | – | Solubility ([1]; herbicides, Table A): 15 mg/1; Margin of Exposure vs NOEL (Target > 100) [2]: 133; Margin of Exposure vs. RfD (Target > 1) [4]: 1.3 |
| C=CCOC(Cn1ccnc1)c1ccc(Cl)cc1Cl (stereo not shown) [Imazalil, 1-[2-(2,4-dichlorophenyl)-2-(2-propenyloxy)ethyl]-1H-imidazole] | 1400 (≈ 4710 µM) | 17 | 0.2 | – | – | – | – |
| CCCOC(=O)NCCCN(C)C.Cl [Propamocarb, Propyl 3-(dimethylamino)propylcarbamate-hydrochloride] | – | 438 | 1.4 | – | – | – | – |
| CC(C)(C)C(O)(CCc1ccc(Cl)cc1)Cn1cncn1 (stereo not drawn) [Tebuconazole, H-1,2,4-triazole-1-ethanol-alpha-[2-(4-chlorophenyl)-ethyl]-alpha-(1,1-dimethylethyl)] | – | 13 | 0.4 | – | – | – | Score @ 10 ppm (mustard algae [6]; 10 ppm, visual score 0 to 4, 10 days, Table 3): 2; Score @ 15 ppm active ingredient (mustard algae [6]; 15 ppm, visual score 0 to 4, 10 days, Table 3): 1; Comments (Preventive Algae Control) (mustard algae [6]; Table 3, at 15 ppm): very little growth; Turbidity @ 5 ppm active ingredient (Change in Turbidity at five days post treatment) (mustard algae [5]; 5 ppm, Table 4): +0.09; Turbidity @ 10 ppm active ingredient (Change in Turbidity at five days post treatment) (mustard algae [5]; 10 ppm, Table 4): +0.24; comments (Remedial Algae Control) (mustard algae [5]; Table 4): more effective |
| Cc1[nH]c(=O)n(C(C)(C)C)c(=O)c1Cl [Terbacil, 3-tert-Butyl-5-chloro-6-methyluracil] | – | – | – | −0.02 | −0.02 | algicidal activity | Margin of Exposure vs NOEL (Target > 100) [2]: 16; Score @ ppm active agent: 0 (mustard algae [6]; 0 ppm, visual score 0 to 4, 10 days, 27° C.): 0; Score @ ppm active agent: 10 (mustard algae [6]; 10 ppm, visual score 0 to 4, 10 days, 27° C.): 0; Score @ ppm active agent: 15 (mustard algae [6]; 15 ppm, visual score 0 to 4, 10 days, 27° C.): 0; water turbidity (mustard algae [5]; Table 2): decreased significantly; Margin of Exposure vs. RfD (Target > 1) [4]: 0.17 |
| CC(C)(C)C(=O)C(Oc1ccc(Cl)cc1)n1cncn1 (stereo not shown) [Triademefon, 1-(4-chlorophenoxy)-3,3-dimethyl-1-(1H-1,2,4-triazol-1-yl)-2-butanone] | 260 (≈ 885 µM) | 104 | 0.4 | – | – | – | – |
| CC(C)(C)C(O)C(Oc1ccc(Cl)cc1)n1cncn1 (stereo not drawn) [Triademenol, Beta-(4-chlorophenoxy)-alpha-(1,1-dimethylethyl)-1-1H-1,2,4-triazole-1-ethanol] | 260 (≈ 879 µM) | 50 | 0.5 | – | – | – | – |
| COC(=O)c1cccc(C)c1S(=O)(=O)NC(=O)Nc1nc(OCC(F)(F)F)nc(N(C)C)n1 [Triflusulfuronmethyl] | – | – | – | +0.04 | +0.03 | Algistatic. | Solubility ([1]; herbicides, Table A): 110-11000 mg/1; Margin of Exposure vs NOEL (Target > 100) [2]: 33 |

— patent publication US6710017B2, “Compositions and methods for controlling algae in recirculating water systems” (Avecia, Inc., priority 2000, dated 2004)
